# “Also recorded” adds a separate entry of the source. Where two headings read alike, the source gives them in different places.
# Experiments:
# [1] = Body weights of tumor-bearing mice during treatment; assay type: in vivo; settings: for Difference in body weight (BW), Vehicle vs. Rasagiline PO / Difference in percent change in body weight (% BW), Vehicle vs. Rasagiline PO: 15 mg/kg PO daily
# Protocol: Body weights were measured prior to dosing and every three days concurrent with tumor measurements for both patch removal/application and oral dosing. Body weights were transformed into percent change in body weight using the formula: […] […] Cisplatin was administered once-weekly via intraperitoneal injection.
# [2] = Survival / mortality of tumor-bearing mice during treatment; assay type: in vivo
# Protocol: The percentage of animal mortality and time of death was recorded for every group in the study. Animals were defined as moribund and euthanized if one or more of the following criteria were met: prolonged or excessive pain or distress as defined by clinical observations such as: prostration, hunched posture, paralysis/paresis, distended abdomen, ulcerations, abscesses, seizures and/or hemorrhages; loss of more than 20% of their body weight; if the tumor volumes exceeded 2,000 mm^3 or the tumors ulcerated, bled or produced exudates.
# Survival of the animals was recorded for the entire experiment. If an animal died or was euthanized due to morbidity during the experiment, its day of death was designated as “1”. If an animal survived the entire time course of the experiment, the last day of observation was designated as a “0”. Survival data was analyzed using a Kaplan-Meier Survival analysis and survival curves were compared using a Log-rank test. P values less than 0.05 were considered significant.
# [3] = tested on: SKMEL28 human melanoma cell line; assay: SKMEL28 melanoma xenograft tumor volume / growth in athymic mice; settings: for tumor growth rates (in words) / tumor volume / tumor growth on the last day of the experiment (in words): compared to the no treatment group
# From the text: The SKMEL28 human melanoma cell line was obtained from ATCC and grown according to the vendor's instructions until a log growth phase was obtained. The cells were harvested from the culture vessel, washed once and re-suspended in serum free medium and matrigel mixed at a 1:1 ratio.
# Female athymic (nu/nu) mice were used for in vivo animal studies. The mice were 7-8 weeks old at the time of tumor implantation. Six groups of mice were included in the study, with 10 animals in each group.
# Mice were inoculated subcutaneously in the scapular area in a volume of 0.2 mL containing ˜10×10^6 SKMEL28 cells.
# Tumor dimensions were measured twice a week with digital calipers and tumor volumes were calculated from the dimensions with the formula: Tumor Volume (m)=(a^2×b/2); where “a” was the smallest dimension and “b” was the largest dimension. […] Test article treatment was initiated on the same day as assignment to treatment groups. Tumor dimensions were measured and tumor volumes calculated every three days (at the same time as patch removal and application) for 21 days. Tumor volumes were also transformed into percent change in tumor volume using the formula: Percent Change TV=(TVi−TVo)/TVo×100%; where TV was tumor volume, TVi was the tumor volume at the measurement time and TVo was the initial tumor volume. Differences between treatment groups for both the raw tumor volumes and percent changes in tumor volume versus time data sets were evaluated with Two-way ANOVAs. Pair-wise differences between the no treatment and test article treatment groups on each measurement day were evaluated with post hoc Bonferroni's T-tests. In order to evaluate the growth rates of the tumors between treatments, straight lines were fitted through the different data sets (percent change in tumor volumes versus time) by least squares regression. Slopes of the lines were compared initially between all groups and then in a pair-wise fashion between the “no treatment” and “test article” treated groups using an F-test. In all cases, P values less than 0.05 were considered significant.
# Test article administrations were initiated on the same day as treatment group assignments and according to the Experimental Grouping Table. Rasagiline administration consisted of either oral gavage (15 mg/kg PO, daily for 21 days) or topical transdermal patch treatment. Cisplatin was administered once-weekly via intraperitoneal injection. Transdermal patches were applied to the intrascapular (i.e., directly over the tumor) and chest areas and maintained in position with a single BandAid™. Fresh patches were applied to the same locations every third day. The skin was cleaned prior to the first patch application with clorehexadene and as necessary prior to repeat applications. […] Mice were conscious and lightly restrained for patch removal and application. The patches were 0.75 or 1.2 in^2.
# in vivo = settings: athymic nude, mouse, po, 15 mg/kg
# Protocol: At the end of the 21-day treatment duration, 2 animals from each group were euthanized at each of the following time points by isoflurane inhalation (0.5, 1, 2, 4, 8, and 24 hours after the last administration of the test articles including the application of fresh transdermal patches). For the 15 mg/kg PO Rasagiline group, two mice were bled twice (cheek bleed and terminal cardiac) so that ten mice could supply blood samples for six time points. Blood samples were collected from these animals via cardiac puncture into blood collection tubes containing lithium heparin. The blood samples were processed within 30 minutes of collection by centrifugation to prepare plasma samples. The plasma was separated from the cellular fraction and frozen on dry ice. Plasma samples were stored at −80° C. until they were shipped to an analytical laboratory designated by the Sponsor.
# To compare rasagiline exposure by both dosing routes, blood was collected from two animals at each time point by sparse sampling techniques via cardiocentesis prior to euthanasia. Two samples were collected each from two animals in the oral dose group by collecting the first sample from the submandibular vein at 0.25 hours and cardiocentesis at eight hours. Blood was collected from animals administered oral rasagiline at 0.25, 0.5, 1, 2, 4 and 8 hours after the last oral dose. Animals administered the transdermal patches had blood collected at 0.5, 1, 2, 4, and 24 hours on the last application day. Blood collected from animals in the naïve, vehicle, and placebo patch groups determined baseline values and were used for pre-dose levels. […] Mean values for each time point within the rasagiline groups were used to calculate the mean AUC(0-t) value. The AUC(0-8) derived for the oral rasagiline group was multiplied by three to estimate the AUC(0-24) exposure. The ratio of AUC(0-24) for each of the baseline transdermal groups was divided by the estimated oral AUC(0-24) to compare exposures between the two dosing routes.
# [4] = oral administration (0.45 mg/kg), cited from earlier work
# [5] = oral gavage 15 mg/kg, listed as rasagiline mesylate, 15 mg/kg
# [6] = oral gavage 15 mg/kg, listed as rasagiline, 15 mg/kg
structure (smiles),measurement,setting,value
N.N.[Cl][Pt][Cl] [Cisplatin],body weight loss (in words),"[1]; 10 mg/kg IP, versus any other treatment group",greater body weight loss
same,survival versus No Treatment group (Logrank test; in words),[2]; 10 mg/kg IP every 7 days,Yes
same,animals that died,"[2]; 10 mg/kg IP every 7 days, group of 10, deaths on Days 13-17",7 out of the 10
same,"SLOPE, best-fit value of linear fit to percent changes in tumor volume versus time",[3]; 10 mg/kg IP every 7 days,13.16
same,tumor growth rates (in words),[3]; 10 mg/kg IP,significantly slowed; also recorded: significantly reduced tumor growth rates
same,reduction in the percent change in tumor volumes,"[3]; 10 mg/kg IP, compared to the oral vehicle treatment, prior to death of the majority of the animals",49%
"C#CCNC1CCc2ccccc21 (stereo not shown) [Rasagiline, N-propargyl-1-aminoindan]","Difference in body weight (BW), Vehicle vs. Rasagiline PO",[1]; Day 1,0.4100
same,"Difference in percent change in body weight (% BW), Vehicle vs. Rasagiline PO",[1]; Day 1,0.0000%
same,"Difference in body weight (BW), Vehicle vs. Rasagiline PO",[1]; Day 4,−0.1100
same,"Difference in percent change in body weight (% BW), Vehicle vs. Rasagiline PO",[1]; Day 4,−2.229%
same,"Difference in body weight (BW), Vehicle vs. Rasagiline PO",[1]; Day 7,0.2200
same,"Difference in percent change in body weight (% BW), Vehicle vs. Rasagiline PO",[1]; Day 7,−0.7052%
same,"Difference in body weight (BW), Vehicle vs. Rasagiline PO",[1]; Day 10,0.3400
same,"Difference in percent change in body weight (% BW), Vehicle vs. Rasagiline PO",[1]; Day 10,−0.2490%
same,"Difference in body weight (BW), Vehicle vs. Rasagiline PO",[1]; Day 13,0.1700
same,"Difference in percent change in body weight (% BW), Vehicle vs. Rasagiline PO",[1]; Day 13,−1.053%
same,"Difference in body weight (BW), Vehicle vs. Rasagiline PO",[1]; Day 16,0.2800
same,"Difference in percent change in body weight (% BW), Vehicle vs. Rasagiline PO",[1]; Day 16,−0.4240%
same,"Difference in body weight (BW), Vehicle vs. Rasagiline PO",[1]; Day 22,−0.5500
same,"Difference in percent change in body weight (% BW), Vehicle vs. Rasagiline PO",[1]; Day 22,−4.072%
same,percent change in body weight (in words),"[1]; oral 15 mg/kg daily, compared with the no treatment group, 15 mg/kg",steadily reduced body weight from day 13 onwards
same,survival (in words),"[2]; orally or transdermally, 21 days",survived to the end of the study; also recorded: survived the dosing period
same,Cmax,in vivo,899 ng/mL
same,Tmax,in vivo,15 min
same,concentration at 0.25 h,in vivo,899 ng/mL
same,concentration at 0.5 h,in vivo,370 ng/mL
same,concentration at 1 h,in vivo,216 ng/mL
same,concentration at 2 h,in vivo,82.5 ng/mL
same,concentration at 4 h,in vivo,28.4 ng/mL
same,concentration at 8 h,in vivo,19.9 ng/mL
same,time of mean maximal plasma concentration,in vivo,15 min
same,AUC(0-t),in vivo; Mean AUC(0-24),774 ng·h/mL
same,AUC(0-t),in vivo; estimated exposure after 24 hours (AUC(0-8) multiplied by three),2320 ng·h/mL
same,Maximum % of dose,[4]; Fat,8.47 % of dose
same,Time to maximal exposure,[4]; Fat,0.25
same,Maximum % of dose,[4]; Kidneys,3.89 % of dose
same,Time to maximal exposure,[4]; Kidneys,0.25
same,Maximum % of dose,[4]; Large intestine,1.83 % of dose
same,Time to maximal exposure,[4]; Large intestine,1
same,Maximum % of dose,[4]; Liver,13.20 % of dose
same,Time to maximal exposure,[4]; Liver,0.25
same,Maximum % of dose,[4]; Lung,1.46 % of dose
same,Time to maximal exposure,[4]; Lung,0.25
same,Maximum % of dose,[4]; Muscle,24.11 % of dose
same,Time to maximal exposure,[4]; Muscle,0.25
same,Maximum % of dose,[4]; Skin,13.20 % of dose
same,Time to maximal exposure,[4]; Skin,0.25
same,Maximum % of dose,[4]; Small intestine,8.76 % of dose
same,Time to maximal exposure,[4]; Small intestine,0.25
same,Maximum % of dose,[4]; Stomach,4.73 % of dose
same,Time to maximal exposure,[4]; Stomach,0.5
same,Maximum % of dose,[4]; Whole Blood,4.54 % of dose
same,Time to maximal exposure,[4]; Whole Blood,0.25
same,"SLOPE, best-fit value of linear fit to percent changes in tumor volume versus time","[3]; 15 mg/kg PO daily, 21 days",26.64
same,"Difference in percent change in tumor volume (% TV), Vehicle vs. Rasagiline 15 mg/kg PO","[3]; Day 1, 15 mg/kg PO daily",0.0000%
same,"Difference in tumor volume (TV), Vehicle vs. Rasagiline (15 mg/kg PO)","[3]; Day 1, 15 mg/kg PO daily",−0.2606
same,"Difference in percent change in tumor volume (% TV), Vehicle vs. Rasagiline 15 mg/kg PO","[3]; Day 4, 15 mg/kg PO daily",−12.56%
same,"Difference in tumor volume (TV), Vehicle vs. Rasagiline (15 mg/kg PO)","[3]; Day 4, 15 mg/kg PO daily",−15.03
same,"Difference in percent change in tumor volume (% TV), Vehicle vs. Rasagiline 15 mg/kg PO","[3]; Day 7, 15 mg/kg PO daily",−36.19%
same,"Difference in tumor volume (TV), Vehicle vs. Rasagiline (15 mg/kg PO)","[3]; Day 7, 15 mg/kg PO daily",−40.95
same,"Difference in percent change in tumor volume (% TV), Vehicle vs. Rasagiline 15 mg/kg PO","[3]; Day 10, 15 mg/kg PO daily",−42.92%
same,"Difference in tumor volume (TV), Vehicle vs. Rasagiline (15 mg/kg PO)","[3]; Day 10, 15 mg/kg PO daily",−50.83
same,"Difference in percent change in tumor volume (% TV), Vehicle vs. Rasagiline 15 mg/kg PO","[3]; Day 13, 15 mg/kg PO daily",−71.82%
same,"Difference in tumor volume (TV), Vehicle vs. Rasagiline (15 mg/kg PO)","[3]; Day 13, 15 mg/kg PO daily",−92.36
same,"Difference in percent change in tumor volume (% TV), Vehicle vs. Rasagiline 15 mg/kg PO","[3]; Day 16, 15 mg/kg PO daily",−98.35%
same,"Difference in tumor volume (TV), Vehicle vs. Rasagiline (15 mg/kg PO)","[3]; Day 16, 15 mg/kg PO daily",−128.8
same,"Difference in percent change in tumor volume (% TV), Vehicle vs. Rasagiline 15 mg/kg PO","[3]; Day 22, 15 mg/kg PO daily",−153.3%
same,"Difference in tumor volume (TV), Vehicle vs. Rasagiline (15 mg/kg PO)","[3]; Day 22, 15 mg/kg PO daily",−154.4
same,tumor volume / tumor growth on the last day of the experiment (in words),"[3]; oral gavage 15 mg/kg, 15 mg/kg",significantly reduced tumor volume
same,tumor growth rates (in words),[3]; [5],significantly reduced absolute tumor volumes as well as tumor growth rates
same,tumor volume / tumor growth on the last day of the experiment (in words),[3]; [5],significantly reduced absolute tumor volumes
same,tumor growth rates (in words),[3]; [6],significantly slowed; also recorded: significantly reduced tumor growth rates
same,tumor volume / tumor growth on the last day of the experiment (in words),[3]; [6],significant reductions in tumor growth
same,reduction in percent change in tumor volume,"[3]; oral gavage 15 mg/kg, compared to the oral vehicle control",22%
same,tumor growth rates (in words),[3]; transdermal patch,significantly reduced absolute tumor volumes as well as tumor growth rates
same,tumor volume / tumor growth on the last day of the experiment (in words),[3]; transdermal patch,significantly reduced absolute tumor volumes

# — US9913812B2, “Methods for the treatment of skin neoplasms” (TEIKOKU PHARMA USA, INC., priority 2011, dated 2018)
